The subject of test [1] is HCV genotype 1a (H77 strain) replicon in HUH-7 cells. Nature of the test: HCV replicon luciferase reporter assay, genotype 1a. It counts as cell-based. Particulars: Hepatitis C virus, Huh-7, 72 h, HCV genotype 1a replicon luciferase, 3 days incubation, read-out: LE_1a (EC50, range). In outline:
(§1)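 Replicon inhibition for both genotypes was measured as Renilla luciferase signal (EnduRen, 7.5 μM final, 2 h) after 3-day, 37° C exposure of replicon-bearing HUH-7 cells in 4% FCS DMEM, 0.5% DMSO. The 1b construct carries S1179I; the 1a H77 construct carries P1496L and S2204I. Twenty-point, 3-fold dilutions were fitted four-parametrically for EC50, and CC50 was taken from multiplexed Cell Titer-Blue.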
In general terms: A replicon is a self-replicating genome or part of one, used to study replication in cells.

Test [2] deals with HCV genotype 1b (Con1) replicon in HUH-7 cells. Nature of the test: HCV replicon luciferase reporter assay, genotype 1b. The format is cell-based. Particulars: Hepatitis C virus, Huh-7, 72 h, HCV genotype 1b replicon luciferase, 3 days incubation, read-out: LE_1b (EC50, range). In outline:
as §1

19 compounds from patent US9499550B2 (BRISTOL-MYERS SQUIBB COMPANY, priority 2012, dated 2016) can be followed below.

Like-named read-outs stand apart in the source and are kept apart here.

`COc1ccc2c(O[C@@H]3C[C@H]4C(=O)N[C@]5(C(=O)NS(=O)(=O)C6(F)CC6)C[C@H]5/C=C\CC[C@@H](C)C[C@@H](C)[C@H](NC(=O)c5ccccc5F)C(=O)N4C3)nccc2c1` [Compound 4029]: the EC50 in test [1] and in test [2] was less than 5.46 nM throughout.

On to `C[C@@H]1CC/C=C\[C@@H]2C[C@@]2(C(=O)NS(=O)(=O)C2CC2)NC(=O)[C@@H]2C[C@@H](Oc3ncc(OCC4CC4)c4ccccc34)CN2C(=O)[C@@H](NC(=O)CC(C)(C)C(F)(F)F)[C@H](C)C1` [Compound 4030], for which the EC50 in test [1] and in test [2] was less than 5.46 nM throughout.

For `C[C@@H]1CC/C=C\[C@@H]2C[C@@]2(C(=O)NS(=O)(=O)C2CC2)NC(=O)[C@@H]2C[C@@H](Oc3ncc(OC(F)F)c4c(Cl)cccc34)CN2C(=O)[C@@H](NC(=O)CC(C)(C)C(F)(F)F)[C@H](C)C1` [Compound 4031], the concentration giving a half-maximal response (EC50) in test [1] and in test [2] was less than 5.46 nM each time.

On to `COc1ccc2c(O[C@@H]3C[C@H]4C(=O)N[C@]5(C(=O)NS(=O)(=O)C6CC6)C[C@H]5/C=C\CC[C@@H](C)C[C@@H](C)[C@H](NC(=O)OC(C)(C)C)C(=O)N4C3)ncnc2c1` [Compound 4032, tert-butyl (2R,6S,7R,9R,13aS,14aR,16aS,Z)-14a-(cyclopropylsulfonylcarbamoyl)-2-(7-methoxyquinazolin-4-yloxy)-7,9-dimethyl-5,16-dioxo-1,2,3,5,6,7,8,9,10,11,13a,14,14a,15,16,16a-hexadecahydrocyclopropa[e]pyrrolo[1,2-a][1,4]diazacyclopentadecin-6-ylcarbamate], for which the concentration giving a half-maximal response (EC50) in test [1] and in test [2] was less than 5.46 nM each time.

With `COc1ccc2c(O[C@@H]3C[C@H]4C(=O)N[C@]5(C(=O)NS(=O)(=O)C6CC6)C[C@H]5/C=C\CC[C@H](C)C[C@@H](C)[C@H](NC(=O)OC(C)(C)C)C(=O)N4C3)ncnc2c1` [Compound 4033, tert-butyl (2R,6S,7R,9S,13aS,14aR,16aS,Z)-14a-(cyclopropylsulfonylcarbamoyl)-2-(7-methoxyquinazolin-4-yloxy)-7,9-dimethyl-5,16-dioxo-1,2,3,5,6,7,8,9,10,11,13a,14,14a,15,16,16a-hexadecahydrocyclopropa[e]pyrrolo[1,2-a][1,4]diazacyclopentadecin-6-ylcarbamate], the EC50 in test [1] and in test [2] was less than 5.46 nM throughout.

`COc1ccc2c(O[C@@H]3C[C@H]4C(=O)N[C@]5(C(=O)NS(=O)(=O)C6CC6)C[C@H]5/C=C\CC[C@@H](C)C[C@@H](C)[C@H](NC(=O)OC(C)(C)C(F)(F)F)C(=O)N4C3)ncnc2c1` [Compound 4034]: the concentration for a half-maximal effect (EC50) in test [1] (GETYPE1A) and in test [2] (GETYPE1B) was less than 5.46 nM throughout.

As for `COc1ccc2c(O[C@@H]3C[C@H]4C(=O)N[C@]5(C(=O)NS(=O)(=O)C6(F)CC6)C[C@H]5/C=C\CC[C@@H](C)C[C@@H](C)[C@H](NC(=O)OCC5(C)CC5)C(=O)N4C3)nccc2c1` [Compound 4036], the half-maximal effective concentration (EC50) in test [1] and in test [2] was less than 5.46 nM in each case.

On to `COc1ccc2c(O[C@@H]3C[C@H]4C(=O)N[C@]5(C(=O)NS(=O)(=O)C6(F)CC6)C[C@H]5/C=C\CC[C@@H](C)C[C@@H](C)[C@H](NC(=O)OC5CCCCC5)C(=O)N4C3)nccc2c1` [Compound 4037], for which the EC50 in test [1] and in test [2] was less than 5.46 nM in each case.

Take `COc1ccc2c(O[C@@H]3C[C@H]4C(=O)N[C@]5(C(=O)NS(=O)(=O)C6(F)CC6)C[C@H]5/C=C\CC[C@@H](C)C[C@@H](C)[C@H](NC(=O)OC5C[C@@H]6C[C@@H]6C5)C(=O)N4C3)nccc2c1` (some centres unmarked) [Compound 4038]: the EC50 in test [1] and in test [2] was less than 5.46 nM throughout.

`COc1cc2ccnc(O[C@@H]3C[C@H]4C(=O)N[C@]5(C(=O)NS(=O)(=O)C6(C)CC6)C[C@H]5/C=C\CC[C@@H](C)C[C@@H](C)[C@H](NC(=O)OC(C)(C)C(F)(F)F)C(=O)N4C3)c2cc1F` [Compound 4039, 1,1-trifluoro-2-methylpropan-2-yl(2R,6S,7R,9R,13aS,14aR,16aS,Z)-2-(7-fluoro-6-methoxyisoquinolin-1-yloxy)-7,9-dimethyl-14a-(1-methylcyclopropylsulfonylcarbamoyl)-5,16-dioxo-1,2,3,5,6,7,8,9,10,11,13a,14,14a,15,16,16a-hexadecahydrocyclopropa[e]pyrrolo[1,2-a][1,4]diazacyclopentadecin-6-ylcarbamate]: the concentration for a half-maximal effect (EC50) in test [1] and in test [2] was less than 5.46 nM in each case.

Consider `C[C@@H]1CC/C=C\[C@@H]2C[C@@]2(C(=O)NS(=O)(=O)C2CC2)NC(=O)[C@@H]2C[C@@H](Oc3nccc4ccccc34)CN2C(=O)[C@@H](NC(=O)OC(C)(C)C(F)(F)F)[C@H](C)C1` [Compound 4040], for which the concentration for a half-maximal effect (EC50) in test [1] (GETYPE1A) and in test [2] (GETYPE1B) was less than 5.46 nM in each case.

In the case of `CCOc1cnc(O[C@@H]2C[C@H]3C(=O)N[C@]4(C(=O)NS(=O)(=O)C5(C)CC5)C[C@H]4/C=C\CC[C@@H](C)C[C@@H](C)[C@H](NC(=O)OC(C)(C)C(F)(F)F)C(=O)N3C2)c2ccccc12` [Compound 4041], the concentration giving a half-maximal response (EC50) in test [1] (GETYPE1A) and in test [2] (GETYPE1B) was less than 5.46 nM in each case.

Turning to `COc1cc2ccnc(O[C@@H]3C[C@H]4C(=O)N[C@]5(C(=O)NS(=O)(=O)C6(F)CC6)C[C@H]5/C=C\CC[C@@H](C)C[C@@H](C)[C@H](NC(=O)OCC(C)(C)C)C(=O)N4C3)c2cc1Cl` [Compound 4042, neopentyl (2R,6S,7R,9R,13aS,14aR,16aS,Z)-2-(7-chloro-6-methoxyisoquinolin-1-yloxy)-14a-(1-fluorocyclopropylsulfonylcarbamoyl)-7,9-dimethyl-5,16-dioxo-1,2,3,5,6,7,8,9,10,11,13a,14,14a,15,16,16a-hexadecahydrocyclopropa[e]pyrrolo[1,2-a][1,4]diazacyclopentadecin-6-ylcarbamate], the EC50 in test [1] and in test [2] was less than 5.46 nM throughout.

As for `COc1cc2ccnc(O[C@@H]3C[C@H]4C(=O)N[C@]5(C(=O)NS(=O)(=O)C6(F)CC6)C[C@H]5/C=C\CC[C@@H](C)C[C@@H](C)[C@H](NC(=O)OC(C)(C)C(F)(F)F)C(=O)N4C3)c2cc1Cl` [Compound 4043], the EC50 in test [1] (GETYPE1A) and in test [2] (GETYPE1B) was less than 5.46 nM in each case.

On to `COc1cc2ccnc(O[C@@H]3C[C@H]4C(=O)N[C@]5(C(=O)NS(=O)(=O)C6(F)CC6)C[C@H]5/C=C\CC[C@H](C)C[C@@H](C)[C@H](NC(=O)OC(C)(C)C(F)(F)F)C(=O)N4C3)c2cc1Cl` [Compound 4044], for which the EC50 (usually the concentration giving half of the maximal effect) is 4.82 to 103 nM in test [1] (GETYPE1A) and less than 5.46 nM in test [2] (GETYPE1B).

For the compound `COc1cnc(O[C@@H]2C[C@H]3C(=O)N[C@]4(C(=O)NS(=O)(=O)C5(F)CC5)C[C@H]4/C=C\CC[C@@H](C)C[C@@H](C)[C@H](NC(=O)OC(C)(C)C)C(=O)N3C2)c2cc(F)ccc12` [Compound 4045, tert-butyl (2R,6S,7R,9R,13aS,14aR,16aS,Z)-2-(7-fluoro-4-methoxyisoquinolin-1-yloxy)-14a-(1-fluorocyclopropylsulfonylcarbamoyl)-7,9-dimethyl-5,16-dioxo-1,2,3,5,6,7,8,9,10,11,13a,14,14a,15,16,16a-hexadecahydrocyclopropa[e]pyrrolo[1,2-a][1,4]diazacyclopentadecin-6-ylcarbamate], the EC50 in test [1] and in test [2] was less than 5.46 nM throughout.

`COc1cnc(O[C@@H]2C[C@H]3C(=O)N[C@]4(C(=O)NS(=O)(=O)C5(F)CC5)C[C@H]4/C=C\CC[C@H](C)C[C@@H](C)[C@H](NC(=O)OC(C)(C)C)C(=O)N3C2)c2cc(F)ccc12` [Compound 4046, tert-butyl (2R,6S,7R,9S,13aS,14aR,16aS,Z)-2-(7-fluoro-4-methoxyisoquinolin-1-yloxy)-14a-(1-fluorocyclopropylsulfonylcarbamoyl)-7,9-dimethyl-5,16-dioxo-1,2,3,5,6,7,8,9,10,11,13a,14,14a,15,16,16a-hexadecahydrocyclopropa[e]pyrrolo[1,2-a][1,4]diazacyclopentadecin-6-ylcarbamate]: the EC50 in test [1] and in test [2] was 4.82 to 103 nM each time.

As to `COc1cnc(O[C@@H]2C[C@H]3C(=O)N[C@]4(C(=O)NS(=O)(=O)C5(F)CC5)C[C@H]4/C=C\CC[C@@H](C)C[C@@H](C)[C@H](NC(=O)OCC(C)(C)C)C(=O)N3C2)c2cc(F)ccc12` [Compound 4047, neopentyl (2R,6S,7R,9R,13aS,14aR,16aS,Z)-2-(7-fluoro-4-methoxyisoquinolin-1-yloxy)-14a-(1-fluorocyclopropylsulfonylcarbamoyl)-7,9-dimethyl-5,16-dioxo-1,2,3,5,6,7,8,9,10,11,13a,14,14a,15,16,16a-hexadecahydrocyclopropa[e]pyrrolo[1,2-a][1,4]diazacyclopentadecin-6-ylcarbamate], the concentration giving a half-maximal response (EC50) in test [1] and in test [2] was less than 5.46 nM each time.

In the case of `COc1cnc(O[C@@H]2C[C@H]3C(=O)N[C@]4(C(=O)NS(=O)(=O)C5(F)CC5)C[C@H]4/C=C\CC[C@@H](C)C[C@@H](C)[C@H](NC(=O)OCC4(C)CC4)C(=O)N3C2)c2cc(F)ccc12` [Compound 4048, (1-methylcyclopropyl)methyl (2R,6S,7R,9R,13aS,14aR,16aS,Z)-2-(7-fluoro-4-methoxyisoquinolin-1-yloxy)-14a-(1-fluorocyclopropylsulfonylcarbamoyl)-7,9-dimethyl-5,16-dioxo-1,2,3,5,6,7,8,9,10,11,13a,14,14a,15,16,16a-hexadecahydrocyclopropa[e]pyrrolo[1,2-a][1,4]diazacyclopentadecin-6-ylcarbamate], the EC50 in test [1] and in test [2] was less than 5.46 nM in each case.
